The assay deals with His-tagged CRBN-DDB1 complex (Homo sapiens, UniProt Q96SW2). Nature of the assay: Time-Resolved Fluorescence Resonance Energy Transfer (TR-FRET / HTRF) CRBN binding assay, displacement of Cy5-labeled thalidomide. The note with it: His-CRBN-DDB1, Cy5-thalidomide 8 nM, 1 hour room temperature. How it is done:
Time-Resolved Fluorescence Resonance Energy Transfer (TR-FRET) Assay.
Equal volumes of His-tagged CRBN-DDB1 complex (56 nM) was mixed with Eu-cryptate labeled Anti-6HIS-monoclonal antibody (50× dilution from the commercial stock solution, Vender: Cisbio, Cat. #61HI2KLA) in a final buffer containing 20 mM HEPES pH 7.0, 150 mM NaCl, 0.005% Tween-20. […] The mixture were incubated at room temperature for 1 hour. FRET signals were measured on an EnVision plate reader (Perkin Elmer) by exciting at 340 nm and recording emission at both 615 nm as no FRET control and 665 nm as the FRET signals with a 60 microsecond delay. FRET efficiency was calculated as the ratio of fluorescent signals at […]. Quantitative loss of FRET efficiency as a function of compound concentrations was fitted by a four-parameter Logistic Function using GraphPad Prism 7.0 and the IC50 values were reported for each compound.
The compound numbers correspond to the compound numbers in Table 1.
Sequence of His-tagged CRBN-DDB1 complex (Q96SW2 whole entry): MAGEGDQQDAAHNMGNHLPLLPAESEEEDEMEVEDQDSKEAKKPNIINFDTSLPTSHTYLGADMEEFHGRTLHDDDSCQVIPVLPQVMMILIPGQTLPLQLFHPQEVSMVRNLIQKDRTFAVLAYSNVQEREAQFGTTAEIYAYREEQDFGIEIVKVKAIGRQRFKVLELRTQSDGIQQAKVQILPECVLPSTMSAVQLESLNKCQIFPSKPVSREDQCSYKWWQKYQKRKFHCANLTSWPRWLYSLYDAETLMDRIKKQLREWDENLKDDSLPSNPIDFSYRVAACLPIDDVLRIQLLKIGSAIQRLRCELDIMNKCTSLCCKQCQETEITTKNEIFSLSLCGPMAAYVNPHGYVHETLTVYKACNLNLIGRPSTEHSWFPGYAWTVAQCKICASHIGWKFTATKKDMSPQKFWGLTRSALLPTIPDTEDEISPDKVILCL
Sequence of His-tagged CRBN-DDB1 complex (Q16531 whole entry partner): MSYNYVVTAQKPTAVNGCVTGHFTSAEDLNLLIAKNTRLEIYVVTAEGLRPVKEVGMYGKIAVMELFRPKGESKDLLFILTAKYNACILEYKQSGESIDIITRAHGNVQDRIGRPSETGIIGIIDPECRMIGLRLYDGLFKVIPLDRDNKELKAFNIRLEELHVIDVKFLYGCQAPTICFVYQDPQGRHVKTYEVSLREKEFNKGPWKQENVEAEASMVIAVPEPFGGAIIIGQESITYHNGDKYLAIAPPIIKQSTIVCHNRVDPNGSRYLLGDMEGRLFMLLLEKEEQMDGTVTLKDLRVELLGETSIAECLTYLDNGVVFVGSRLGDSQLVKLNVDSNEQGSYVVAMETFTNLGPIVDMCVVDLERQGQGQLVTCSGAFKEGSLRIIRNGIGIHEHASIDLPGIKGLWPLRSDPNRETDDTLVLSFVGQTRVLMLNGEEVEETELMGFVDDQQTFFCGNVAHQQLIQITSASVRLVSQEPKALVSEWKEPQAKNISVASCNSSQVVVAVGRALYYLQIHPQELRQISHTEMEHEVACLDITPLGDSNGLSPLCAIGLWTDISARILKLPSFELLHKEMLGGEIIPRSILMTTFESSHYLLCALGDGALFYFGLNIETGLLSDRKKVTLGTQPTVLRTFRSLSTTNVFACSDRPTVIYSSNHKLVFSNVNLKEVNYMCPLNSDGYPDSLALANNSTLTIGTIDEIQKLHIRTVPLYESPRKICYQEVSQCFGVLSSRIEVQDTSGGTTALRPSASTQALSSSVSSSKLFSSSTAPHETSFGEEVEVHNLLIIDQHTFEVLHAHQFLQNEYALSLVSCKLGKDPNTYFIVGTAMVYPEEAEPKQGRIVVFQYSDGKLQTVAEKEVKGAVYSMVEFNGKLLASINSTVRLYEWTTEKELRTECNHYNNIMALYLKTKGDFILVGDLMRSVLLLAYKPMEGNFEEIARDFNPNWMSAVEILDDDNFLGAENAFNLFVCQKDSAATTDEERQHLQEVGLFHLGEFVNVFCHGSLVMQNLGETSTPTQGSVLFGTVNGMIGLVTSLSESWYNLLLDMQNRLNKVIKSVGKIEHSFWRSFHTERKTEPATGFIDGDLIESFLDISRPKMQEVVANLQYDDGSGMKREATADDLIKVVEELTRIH
Regarding `Nc1ccc(N2C[C@@H]3C(=O)NC(=O)[C@@H]3C2)cc1` [Compound I-150], the IC50 (commonly the concentration needed to halve the response being measured) was greater than 100 µM.
In the case of `O=C1NC(=O)[C@@H]2CN(c3ccccc3Cl)C[C@H]12` [Compound I-153], the concentration for half-maximal inhibition (IC50) is greater than 100 µM.
As for `NC(=O)c1ccc(N2C[C@@H]3C(=O)NC(=O)[C@@H]3C2)cc1` [Compound I-154], the figure is greater than 100 µM; as for `COc1ccc2cc(N3C[C@@H]4C(=O)NC(=O)[C@@H]4C3)ccc2c1` [Compound I-155], greater than 100 µM.
As for `O=C1NC(=O)[C@@H]2CN(c3ccc4c(c3)CCO4)C[C@H]12` [Compound I-156], the figure is greater than 100 µM; as for `O=C1NC(=O)[C@@H]2CN(c3ccc4c(c3)OCO4)C[C@H]12` [Compound I-157], greater than 100 µM; as for `O=C1NC(=O)[C@@H]2CN(c3ccccc3)C[C@H]12` [Compound I-158], greater than 100 µM.
As for `O=C1CC2(CCN(c3ccc(-c4ccccc4)c(F)c3)CC2)CC(=O)N1` [Compound I-160], the figure is greater than 100 µM.
The molecule `Cc1cccc(N2C[C@@H]3C(=O)NC(=O)[C@@H]3C2)c1` [Compound I-161] had a half-inhibitory concentration (IC50) greater than 100 µM.
As for `COC(=O)c1ccc(N2CCC3(CC2)CC(=O)NC(=O)C3)cc1` [Compound I-162], the figure is greater than 100 µM; as for `O=C1NC(=O)[C@@H]2CN(C3CCC3)C[C@H]12` [Compound I-163], greater than 100 µM.
The figure for `Cc1cccc(C(=O)N2C[C@@H]3C(=O)NC(=O)[C@@H]3C2)n1` [Compound I-164] is greater than 100 µM.
As for `COc1cccc(C(=O)N2C[C@@H]3C(=O)NC(=O)[C@@H]3C2)n1` [Compound I-165], the figure is greater than 100 µM; as for `O=C1NC(=O)[C@@H]2CN(C(=O)c3cc(C(F)(F)F)ccn3)C[C@H]12` [Compound I-166], greater than 100 µM.
Turning to `O=C1NC(=O)[C@@H]2CN(C(=O)c3ccc4ccccc4n3)C[C@H]12` [Compound I-167], the IC50 was greater than 100 µM.
The figure for `O=C1NC(=O)[C@@H]2CN(C(=O)c3cc4ccccc4cn3)C[C@H]12` [Compound I-168] is greater than 100 µM.
As for `Nc1cccc(C(=O)N2C[C@@H]3C(=O)NC(=O)[C@@H]3C2)c1` [Compound I-169], the figure is greater than 100 µM; as for `NC(=O)c1ccccc1N1C[C@@H]2C(=O)NC(=O)[C@@H]2C1` [Compound I-170], greater than 100 µM.
As for `CC(=O)Nc1ccccc1N1C[C@@H]2C(=O)NC(=O)[C@@H]2C1` [Compound I-171], the figure is greater than 100 µM; as for `O=CNc1ccccc1N1C[C@@H]2C(=O)NC(=O)[C@@H]2C1` [Compound I-172], greater than 100 µM.
In turn, `Nc1ccc2c(c1)C1(CC(=O)NC1=O)C(=O)N2` (stereo not shown) [Compound I-173] yielded an IC50 greater than 100 µM.
The figure for `O=C1CC2(C(=O)N1)C(=O)Nc1ccccc12` (stereo not shown) [Compound I-174] is greater than 100 µM; for `CNC(=O)c1cccc(N2C[C@@H]3C(=O)NC(=O)[C@@H]3C2)c1` [Compound I-177] it is greater than 100 µM; for `CN(C)C(=O)c1cccc(N2C[C@@H]3C(=O)NC(=O)[C@@H]3C2)c1` [Compound I-178] it is greater than 100 µM.
The figure for `N#Cc1cccc(N2C[C@@H]3C(=O)NC(=O)[C@@H]3C2)c1` [Compound I-179] is greater than 100 µM; for `CS(=O)(=O)c1cccc(N2C[C@@H]3C(=O)NC(=O)[C@@H]3C2)c1` [Compound I-180] it is greater than 100 µM.
On to `COCc1cccc(N2C[C@@H]3C(=O)NC(=O)[C@@H]3C2)c1` [Compound I-181], for which the IC50 is greater than 100 µM.
The figure for `COc1ccccc1C(=O)N1C[C@@H]2C(=O)NC(=O)[C@@H]2C1` [Compound I-182] is greater than 100 µM; for `CN1C(=O)C2(CC(=O)NC2=O)c2cc(N)ccc21` (stereo not shown) [Compound I-183] it is greater than 100 µM; for `CN1C(=O)C2(CC(=O)NC2=O)c2ccccc21` (stereo not shown) [Compound I-184] it is greater than 100 µM.
Consider `Cn1c(=O)[nH]c2cccc(Br)c2c1=O` [Compound I-190], for which the IC50 was greater than 100 µM.
As for `Cn1c(=O)c2cc(Br)ccc2n(C)c1=O` [Compound I-191], the IC50 is greater than 100 µM.
`Cn1c(=O)c2c(Br)cccc2n(C)c1=O` [Compound I-192] gave an IC50 greater than 100 µM.
The figure for `O=C1CC2(Nc3ccccc3C2=O)C(=O)N1` (stereo not shown) [Compound I-195, 1H-spiro[indole-2,3′-pyrrolidine]-2′,3,5′-trione] is greater than 100 µM; for `O=C1CCc2cccc(Oc3ccccc3)c2C(=O)N1` [Compound I-209, 9-Phenoxy-4,5-dihydro-2H-2-benzazepine-1,3-dione] it is greater than 100 µM; for `O=C1Cc2cccc(Oc3ccccc3C(F)(F)F)c2C(=O)N1` [Compound I-210, 8-[2-(Trifluoromethyl)phenoxy]-2,4-dihydroisoquinoline-1,3-dione] it is less than 10 µM.
The figure for `CC(C)c1ccccc1Oc1cccc2c1C(=O)NC(=O)C2` [Compound I-211, 8-(2-Isopropylphenoxy)-2,4-dihydroisoquinoline-1,3-dione] is less than 10 µM; for `CC(C)(C)OC(=O)NCC#Cc1ccccc1Oc1cccc2c1C(=O)NC(=O)C2` [Compound I-212] it is 30 to 100 µM; for `CC(C)(C)OC(=O)NCCCCCC#Cc1ccccc1Oc1cccc2c1C(=O)NC(=O)C2=O` [Compound I-242] it is less than 10 µM.
The figure for `Cc1ccc(Oc2ccccc2)c2c1CC(=O)NC2=O` [Compound I-279] is 30 to 100 µM; for `CN(Cc1ccccc1)C(=O)c1cccc2c1C(=O)NC(=O)C2` [Compound I-280] it is 30 to 100 µM; for `O=C1Cc2cccc(NCc3ccccc3)c2C(=O)N1` [Compound I-281] it is less than 10 µM.
With `CC(C1CC1)N1C[C@@H]2C(=O)NC(=O)[C@@H]2C1` (stereo partly shown) [Compound I-282], the concentration for half-maximal inhibition (IC50) is greater than 100 µM.
The figure for `O=C1NC(=O)c2cc(NC(=O)N3CCCCC3)ccc21` [Compound I-283] is greater than 100 µM; for `CC(=O)N1C[C@@H]2C(=O)NC(=O)[C@@H]2C1` [Compound I-284] it is greater than 100 µM; for `O=C1NC(=O)[C@@H]2CN(C(=O)c3ccc(Cl)cc3)C[C@H]12` [Compound I-286] it is greater than 100 µM.
The figure for `O=C1NC(=O)[C@@H]2CN(Cc3cccc(O)c3)C[C@H]12` [Compound I-287] is greater than 100 µM; for `O=C1NC(=O)[C@@H]2CN(Cc3c[nH]c4ccccc34)C[C@H]12` [Compound I-288] it is greater than 100 µM; for `O=C1NC(=O)[C@@H]2CN(C3Cc4ccccc4C3)C[C@H]12` [Compound I-289] it is greater than 100 µM.
As for `O=C1NC(=O)[C@@H]2CN(C(=O)c3ccc(O)cc3)C[C@H]12` [Compound I-291], the figure is greater than 100 µM.
For the molecule `COc1ccc(CN2C[C@@H]3C(=O)NC(=O)[C@@H]3C2)cn1` [Compound I-293], the IC50 was greater than 100 µM.
Regarding `CN(C)c1ccc(CN2C[C@@H]3C(=O)NC(=O)[C@@H]3C2)cc1` [Compound I-294], the concentration for half-maximal inhibition (IC50) was greater than 100 µM.
Take `O=C1NC(=O)[C@@H]2CN(Cc3ccc([N+](=O)[O-])s3)C[C@H]12` [Compound I-295]: the concentration for half-maximal inhibition (IC50) was 30 to 100 µM.
The figure for `O=C1NC(=O)[C@@H]2CN(C3CCN(Cc4ccccc4)CC3)C[C@H]12` [Compound I-296] is greater than 100 µM; for `O=C1NC(=O)[C@@H]2CN(Cc3c[nH]cn3)C[C@H]12` [Compound I-297] it is greater than 100 µM; for `O=C1NC(=O)[C@@H]2CN(CCc3ccccc3)C[C@H]12` [Compound I-298] it is greater than 100 µM.
The figure for `Cc1ccc(CN2C[C@@H]3C(=O)NC(=O)[C@@H]3C2)cc1` [Compound I-299] is greater than 100 µM; for `O=C1NC(=O)[C@@H]2CN(Cc3ccc[nH]3)C[C@H]12` [Compound I-300] it is greater than 100 µM.
The figure for `O=C1NC(=O)[C@@H]2CN(C(=O)c3ccnc(Cl)c3)C[C@H]12` [Compound I-301] is greater than 100 µM.
The molecule `O=C1NC(=O)[C@@H]2CN(C(=O)c3n[nH]c4ccccc34)C[C@H]12` [Compound I-302] gave an IC50 greater than 100 µM.
Turning to `O=C1NC(=O)[C@@H]2CN(C(=O)COCc3ccccc3)C[C@H]12` [Compound I-303], the IC50 is greater than 100 µM.
As for `O=C1NC(=O)[C@@H]2CN(C(=O)c3cccnn3)C[C@H]12` [Compound I-304], the figure is greater than 100 µM; as for `Cc1cccc(CC(=O)N2C[C@@H]3C(=O)NC(=O)[C@@H]3C2)c1` [Compound I-305], greater than 100 µM; as for `O=C1NC(=O)[C@@H]2CN(C(=O)C3CC3)C[C@H]12` [Compound I-306], greater than 100 µM.
As for `O=C1NC(=O)[C@@H]2CN(C(=O)c3cnccn3)C[C@H]12` [Compound I-307], the figure is greater than 100 µM; as for `O=C1NC(=O)[C@@H]2CN(C(=O)c3ccco3)C[C@H]12` [Compound I-308], greater than 100 µM.
As for `Cc1ncoc1C(=O)N1C[C@@H]2C(=O)NC(=O)[C@@H]2C1` [Compound I-309], the figure is greater than 100 µM.
`Cc1cc(C(=O)N2C[C@@H]3C(=O)NC(=O)[C@@H]3C2)ccn1` [Compound I-310]: the IC50 is greater than 100 µM.
As for `O=C1NC(=O)[C@@H]2CN(Cc3ccc(Oc4ccccc4)cc3)C[C@H]12` [Compound I-311], the figure is 30 to 100 µM; as for `CCCCOc1ccc(CN2C[C@@H]3C(=O)NC(=O)[C@@H]3C2)cc1` [Compound I-312], greater than 100 µM.
